Results from patent US6699883B1, “Pyrroloimidazole derivatives and their use as medicaments” (Morphochem AG, priority 1999, dated 2004).

tested on: Bac. subtilis; assay: Inhibition test (microdilution assay), inhibition of bacterial growth; assay type: cell-based; conditions: Bacillus subtilis; c = 25 μM
Description: (§1) Inhibition Test Culture media used: Müller-Hinton broth Caso agar plates Test method: Microdilution assay The test organisms are cultured overnight in […]-Honton broth at 35° C. +/-2° C. The suspension of organisms is centrifuged (5000 rev./min, 4° C.); the pellet is resuspended in fresh medium and incubated for a further 2 h. The pellet is then resuspended in 0.9% NaCl solution and the number of cells is adjusted to about 10^8 CFU/ml using standard curves. The resulting suspension is then diluted with Müller-Hinton broth to about 10^4 CFU/ml(=inoculum). Starting from the inoculum, a determination of the number of organisms is carried out by spiralling out (2×0.1 ml) a suitable dilution stage onto CASO agar plates. Test procedure: Specific concentrations of the potential inhibitors are dispensed into a 96-well microtitre assay plate, wells A1-H1remaining empty. The wells of the microtitre assay plates are inoculated with the adjusted suspension of organisms. Wells A1-H1serve as growth controls. Immediately after inoculation and after incubation of the plates for 24 h and 48 h, they are measured in a plate reader (Biotek EL 311) at 550 nm. From the crude data, the inhibition of bacterial and fungal growth is calculated in percent.

| SMILES | inhibition at 25 µM |
| --- | --- |
| c1ccc(COc2cc3c(-c4cncn4C4CCc5ccccc54)c[nH]c3cn2)cc1 (stereo not shown) [Example 12] | 100% |

same assay, conditions: Bacillus subtilis; c = 50 μM

| SMILES | inhibition at 50 µM |
| --- | --- |
| Fc1ccc(-c2ncn(C3CCCc4ccccc43)c2-c2c[nH]c3cnc(OCc4ccccc4)cc23)cc1 (stereo not shown) [Example 11] | 80% |

same assay, conditions: Bacillus subtilis; c = 100 μM

| SMILES | inhibition at 100 µM |
| --- | --- |
| c1ccc(COc2cc3c(-c4cncn4C4CCCc5ccccc54)c[nH]c3cn2)cc1 (stereo not shown) [Example 1] | 100% |
| Cc1[nH]c2ccccc2c1-c1cncn1C1CCN(Cc2ccccc2)CC1 [Example 2] | 100% |
| c1ccc(CN2CCC(n3cncc3-c3c[nH]c4ccccc34)CC2)cc1 [Example 3] | 100% |
| c1ccc(COc2cc3c(-c4cncn4C4CCN(Cc5ccccc5)CC4)c[nH]c3cn2)cc1 [Example 4] | 100% |
| CC(C)CCn1cncc1-c1c[nH]c2cnc(OCc3ccccc3)cc12 [Example 5] | 100% |
| c1ccc(COc2cc3c(-c4cncn4CCc4c[nH]c5ccccc45)c[nH]c3cn2)cc1 [Example 6] | 10% |
| Cc1[nH]c2ccccc2c1-c1cncn1C1CCCc2ccccc21 (stereo not shown) [Example 7] | 76% |
| Cc1[nH]c2ccccc2c1-c1cncn1CCNC(C)C [Example 8] | 39% |
| COc1ccc2[nH]cc(-c3cncn3CCc3ccc(O)cc3)c2c1 [Example 9] | 38% |
| O[C@@H]1Cc2ccccc2C1n1cncc1-c1c[nH]c2cnc(OCc3ccccc3)cc12 (stereo partly shown) [Example 13] | 90% |

tested on: Staph. aureus; assay: as above; assay type: cell-based; conditions: Staphylococcus aureus; c = 12.5 μM
Description: as §1

| SMILES | inhibition at 12.5 µM |
| --- | --- |
| c1ccc(COc2cc3c(-c4cncn4C4CCc5ccccc54)c[nH]c3cn2)cc1 (stereo not shown) [Example 12] | 80% |

same assay, conditions: Staphylococcus aureus; c = 50 μM

| SMILES | inhibition at 50 µM |
| --- | --- |
| Fc1ccc(-c2ncn(C3CCCc4ccccc43)c2-c2c[nH]c3cnc(OCc4ccccc4)cc23)cc1 (stereo not shown) [Example 11] | 60% |

same assay, conditions: Staphylococcus aureus; c = 100 μM

| SMILES | inhibition at 100 µM |
| --- | --- |
| c1ccc(COc2cc3c(-c4cncn4C4CCCc5ccccc54)c[nH]c3cn2)cc1 (stereo not shown) [Example 1] | 100% |
| Cc1[nH]c2ccccc2c1-c1cncn1C1CCN(Cc2ccccc2)CC1 [Example 2] | 100% |
| c1ccc(CN2CCC(n3cncc3-c3c[nH]c4ccccc34)CC2)cc1 [Example 3] | 100% |
| c1ccc(COc2cc3c(-c4cncn4C4CCN(Cc5ccccc5)CC4)c[nH]c3cn2)cc1 [Example 4] | 100% |
| CC(C)CCn1cncc1-c1c[nH]c2cnc(OCc3ccccc3)cc12 [Example 5] | 100% |
| c1ccc(COc2cc3c(-c4cncn4CCc4c[nH]c5ccccc45)c[nH]c3cn2)cc1 [Example 6] | 85% |
| Cc1[nH]c2ccccc2c1-c1cncn1C1CCCc2ccccc21 (stereo not shown) [Example 7] | 40% |
| Cc1[nH]c2ccccc2c1-c1cncn1CCNC(C)C [Example 8] | 82% |
| COc1ccc2[nH]cc(-c3cncn3CCc3ccc(O)cc3)c2c1 [Example 9] | 25% |
| O[C@@H]1Cc2ccccc2C1n1cncc1-c1c[nH]c2cnc(OCc3ccccc3)cc12 (stereo partly shown) [Example 13] | 90% |

tested on: Strept. pneumoniae; assay: as above; assay type: cell-based; conditions: Streptococcus pneumoniae; c = 100 μM
Description: as §1

| SMILES | inhibition at 100 µM |
| --- | --- |
| c1ccc(COc2cc3c(-c4cncn4C4CCCc5ccccc54)c[nH]c3cn2)cc1 (stereo not shown) [Example 1] | 100% |
| Cc1[nH]c2ccccc2c1-c1cncn1C1CCN(Cc2ccccc2)CC1 [Example 2] | 90% |
| c1ccc(CN2CCC(n3cncc3-c3c[nH]c4ccccc34)CC2)cc1 [Example 3] | 80% |
| c1ccc(COc2cc3c(-c4cncn4C4CCN(Cc5ccccc5)CC4)c[nH]c3cn2)cc1 [Example 4] | 90% |
| CC(C)CCn1cncc1-c1c[nH]c2cnc(OCc3ccccc3)cc12 [Example 5] | 90% |
| c1ccc(COc2cc3c(-c4cncn4CCc4c[nH]c5ccccc45)c[nH]c3cn2)cc1 [Example 6] | 10% |
| Cc1[nH]c2ccccc2c1-c1cncn1C1CCCc2ccccc21 (stereo not shown) [Example 7] | 0% |
| Cc1[nH]c2ccccc2c1-c1cncn1CCNC(C)C [Example 8] | 0% |
| COc1ccc2[nH]cc(-c3cncn3CCc3ccc(O)cc3)c2c1 [Example 9] | 85% |

tested on: Candida albicans; assay: Inhibition test (microdilution assay), inhibition of fungal growth; assay type: cell-based; conditions: c = 50 μM, read-out: Inhibition of bacterial growth: Candida albicans
Description: as §1

| SMILES | inhibition at 50 µM |
| --- | --- |
| Fc1ccc(-c2ncn(C3CCCc4ccccc43)c2-c2c[nH]c3cnc(OCc4ccccc4)cc23)cc1 (stereo not shown) [Example 11] | 100% |

same assay, conditions: c = 100 μM, read-out: Inhibition of bacterial growth: Candida albicans

| SMILES | inhibition at 100 µM |
| --- | --- |
| c1ccc(COc2cc3c(-c4cncn4C4CCCc5ccccc54)c[nH]c3cn2)cc1 (stereo not shown) [Example 1] | 0% |
| Cc1[nH]c2ccccc2c1-c1cncn1C1CCN(Cc2ccccc2)CC1 [Example 2] | 60% |
| c1ccc(CN2CCC(n3cncc3-c3c[nH]c4ccccc34)CC2)cc1 [Example 3] | 60% |
| c1ccc(COc2cc3c(-c4cncn4C4CCN(Cc5ccccc5)CC4)c[nH]c3cn2)cc1 [Example 4] | 70% |
| CC(C)CCn1cncc1-c1c[nH]c2cnc(OCc3ccccc3)cc12 [Example 5] | 0% |
| c1ccc(COc2cc3c(-c4cncn4CCc4c[nH]c5ccccc45)c[nH]c3cn2)cc1 [Example 6] | 0% |
| Cc1[nH]c2ccccc2c1-c1cncn1C1CCCc2ccccc21 (stereo not shown) [Example 7] | 0% |
| Cc1[nH]c2ccccc2c1-c1cncn1CCNC(C)C [Example 8] | 0% |
| COc1ccc2[nH]cc(-c3cncn3CCc3ccc(O)cc3)c2c1 [Example 9] | 0% |
| c1ccc(COc2cc3c(-c4cncn4C4CCc5ccccc54)c[nH]c3cn2)cc1 (stereo not shown) [Example 12] | 60% |

same assay, conditions: c = 200 μM, read-out: Inhibition of bacterial growth: Candida albicans

| SMILES | inhibition at 200 µM |
| --- | --- |
| O[C@@H]1Cc2ccccc2C1n1cncc1-c1c[nH]c2cnc(OCc3ccccc3)cc12 (stereo partly shown) [Example 13] | 90% |

tested on: A549; assay: Assay 1: cell growth by acid phosphatase activity; assay type: cell-based; conditions: Homo sapiens; A549, acid phosphatase, substance 0.1-100 μM, 48 h and 96 h; read-out: Cell proliferation GI50: A549
Description: (§2) Assay 1 Measurement of cell growth by determination of the activity of the intracellular enzyme acid phosphatase. The added substrate p-nitrophenyl phosphate is converted by acid phosphatase into p-nitrophenol, which absorbs light at 405 nm, the intensity of the yellow coloration being proportional to the number of cells. Incubation of the cell lines HEPG-2 and A549 together with the substance (0.1-100 μM) was carried out for 48 h and 96 h at 37° C. and 5% CO2.

| SMILES | GI50 |
| --- | --- |
| c1ccc(COc2cc3c(-c4cncn4C4CCCc5ccccc54)c[nH]c3cn2)cc1 (stereo not shown) [Example 1] | > 100 µM |
| Cc1[nH]c2ccccc2c1-c1cncn1C1CCN(Cc2ccccc2)CC1 [Example 2] | > 100 µM |
| c1ccc(CN2CCC(n3cncc3-c3c[nH]c4ccccc34)CC2)cc1 [Example 3] | > 100 µM |
| c1ccc(COc2cc3c(-c4cncn4C4CCN(Cc5ccccc5)CC4)c[nH]c3cn2)cc1 [Example 4] | > 100 µM |
| CC(C)CCn1cncc1-c1c[nH]c2cnc(OCc3ccccc3)cc12 [Example 5] | > 100 µM |
| c1ccc(COc2cc3c(-c4cncn4CCc4c[nH]c5ccccc45)c[nH]c3cn2)cc1 [Example 6] | > 100 µM |
| Cc1[nH]c2ccccc2c1-c1cncn1C1CCCc2ccccc21 (stereo not shown) [Example 7] | > 100 µM |
| Cc1[nH]c2ccccc2c1-c1cncn1CCNC(C)C [Example 8] | > 100 µM |
| COc1ccc2[nH]cc(-c3cncn3CCc3ccc(O)cc3)c2c1 [Example 9] | > 100 µM |

same assay, conditions: Homo sapiens; A549; printed beside GI50 >100 μM, concentration not given; read-out: Cell proliferation: A549, % inhibition

| SMILES | inhibition at up to 100 µM |
| --- | --- |
| c1ccc(COc2cc3c(-c4cncn4C4CCCc5ccccc54)c[nH]c3cn2)cc1 (stereo not shown) [Example 1] | 22% |
| Cc1[nH]c2ccccc2c1-c1cncn1C1CCN(Cc2ccccc2)CC1 [Example 2] | 12% |
| c1ccc(CN2CCC(n3cncc3-c3c[nH]c4ccccc34)CC2)cc1 [Example 3] | 26% |
| c1ccc(COc2cc3c(-c4cncn4C4CCN(Cc5ccccc5)CC4)c[nH]c3cn2)cc1 [Example 4] | 41% |
| CC(C)CCn1cncc1-c1c[nH]c2cnc(OCc3ccccc3)cc12 [Example 5] | 33% |
| c1ccc(COc2cc3c(-c4cncn4CCc4c[nH]c5ccccc45)c[nH]c3cn2)cc1 [Example 6] | 19% |
| Cc1[nH]c2ccccc2c1-c1cncn1C1CCCc2ccccc21 (stereo not shown) [Example 7] | 0% |
| Cc1[nH]c2ccccc2c1-c1cncn1CCNC(C)C [Example 8] | 10% |
| COc1ccc2[nH]cc(-c3cncn3CCc3ccc(O)cc3)c2c1 [Example 9] | 31% |

tested on: HepG2; assay: Assay 1: cell growth by acid phosphatase activity; assay type: cell-based; conditions: Homo sapiens; HepG2, acid phosphatase, substance 0.1-100 μM, 48 h and 96 h; read-out: Cell proliferation GI50: HepG2
Description: as §2

| SMILES | GI50 |
| --- | --- |
| Cc1[nH]c2ccccc2c1-c1cncn1C1CCN(Cc2ccccc2)CC1 [Example 2] | > 100 µM |
| c1ccc(CN2CCC(n3cncc3-c3c[nH]c4ccccc34)CC2)cc1 [Example 3] | > 100 µM |
| c1ccc(COc2cc3c(-c4cncn4C4CCN(Cc5ccccc5)CC4)c[nH]c3cn2)cc1 [Example 4] | > 100 µM |
| CC(C)CCn1cncc1-c1c[nH]c2cnc(OCc3ccccc3)cc12 [Example 5] | > 100 µM |
| c1ccc(COc2cc3c(-c4cncn4CCc4c[nH]c5ccccc45)c[nH]c3cn2)cc1 [Example 6] | > 100 µM |
| Cc1[nH]c2ccccc2c1-c1cncn1C1CCCc2ccccc21 (stereo not shown) [Example 7] | > 100 µM |
| Cc1[nH]c2ccccc2c1-c1cncn1CCNC(C)C [Example 8] | > 100 µM |
| COc1ccc2[nH]cc(-c3cncn3CCc3ccc(O)cc3)c2c1 [Example 9] | > 100 µM |

same assay, conditions: Homo sapiens; HepG2; printed beside GI50 >100 μM, concentration not given; read-out: Cell proliferation: HepG2, % inhibition

| SMILES | inhibition at up to 100 µM |
| --- | --- |
| Cc1[nH]c2ccccc2c1-c1cncn1C1CCN(Cc2ccccc2)CC1 [Example 2] | 1% |
| c1ccc(CN2CCC(n3cncc3-c3c[nH]c4ccccc34)CC2)cc1 [Example 3] | 48% |
| c1ccc(COc2cc3c(-c4cncn4C4CCN(Cc5ccccc5)CC4)c[nH]c3cn2)cc1 [Example 4] | 65% |
| CC(C)CCn1cncc1-c1c[nH]c2cnc(OCc3ccccc3)cc12 [Example 5] | 38% |
| c1ccc(COc2cc3c(-c4cncn4CCc4c[nH]c5ccccc45)c[nH]c3cn2)cc1 [Example 6] | 17% |
| Cc1[nH]c2ccccc2c1-c1cncn1C1CCCc2ccccc21 (stereo not shown) [Example 7] | 0% |
| Cc1[nH]c2ccccc2c1-c1cncn1CCNC(C)C [Example 8] | 0% |
| COc1ccc2[nH]cc(-c3cncn3CCc3ccc(O)cc3)c2c1 [Example 9] | 14% |
